From patent US20220296667A1, “COMPOSITION FOR A[…] TREATING NARCOLEPSY, […] RICE BRAN POWDER AS ACTIVE INGREDIENT, AND PREPARATION METHOD THEREFOR” (RAPHAGEN, priority 2019, published 2022)

Tests used:
[1] = system: zebrafish; assay: Dark/light transition of zebrafish; assay type: in vivo; settings: dark and light conditions at 10-minute intervals, distance moved at 2-minute intervals; FIGS. 3, 4, 5
Procedure: The dark/light transition of zebrafish treated with the fermented rice bran powder obtained according to Example 1 was measured. Specifically, dark and light conditions were given at 10-minute intervals, and graphs for the distance moved at 2-minute intervals were measured (see FIGS. 3, 4, and 5).

[2] = system: zebrafish; settings: zebrafish whose brain is damaged by PTZ or the like; stated as known; cited from earlier work
[3] = background art; cited from earlier work

SMILES: C1CCc2nnnn2CC1 [PTZ, Pentylenetetrazol]
- behavior pattern to dark/light (distance moved) [1]: moved regardless of the light/dark division
- color recognition [2]: color cannot be normally recognized

SMILES: NC(=O)C[S+]([O-])C(c1ccccc1)c1ccccc1 (stereo not shown) [modafinil, Modafinil]
- half-life [3]: ≥ 15 h

SMILES: O=C(O)CCCO [GHB, Gamma hydroxybutyrate]
- half-life (in words) [3]: short half-life
